How the values were obtained:
[1] = tested on: CCR2 expressing cells (CD11b+Ly6c+Hi) in peripheral blood; assay: In vivo depletion assay, flow cytometry of peripheral blood (Example 201); design: species or system human CCR2 knock-in mice (C57 background); settings: hCCR2 knock-in mice, IV 0.1 mpk compound + 10 mpk anti-cotinine antibody (SEQ ID NO: 13/14), peripheral blood at 48 hr
Summary of the method: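 Mice dosed with compound formulated in saline/DMSO/PBS, with anti-cotinine antibody (rabbit variable region, mouse IgG2a Fc) where required, pre-incubated 30 min at room temperature. Terminal peripheral blood RBC-lysed, Fc-blocked, stained for CD45, CD3, CD11b, Ly6C, human CCR2 and 7AAD; percent depletion of CD11b+Ly6c+Hi cells determined by flow cytometry.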

[2] = target: anti-cotinine antibody (SEQ ID NO: 11/12, rabbit variable region with human IgG1 Fc DE mutation); assay: SPR binding of anti-cotinine antibody to ARM compounds, Biacore T200, 37° C. (Example 202); settings: SPR Biacore T200, 37° C., pH 7.4, antibody SEQ ID NO: 11/12 captured on protein A; Kd in molar
Summary of the method: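 Antibody captured on a protein A chip; ARM compounds injected at 100 μL/min (200 s association, 2000 s dissociation), 3-fold 5-point series from 200 nM, at 37 °C in HEPES pH 7.4 buffer with 0.005% P20 and 1% DMSO. Double-referenced sensorgrams fit 1:1 for kon, koff, Kd (koff/kon), residence time (1/koff); pKd averaged across runs.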

[3] = Blood drug concentration analysis by LC-MS/MS after IV dosing with anti-cotinine antibody (Example 201); format: in vivo; settings: C57 background, human CCR2 knock-in, mouse; hCCR2 knock-in mice, IV 0.1 mpk compound + 10 mpk anti-cotinine antibody, whole blood, 48 hours post-dose; read-out: Exposure of Compound of Formula (I) 48 hours post-dose
Procedure: After bleeding, each mouse was sacrificed by cervical dislocation. […] Flow Cytometry Analysis:
Samples were analyzed on Q-Trap. […] The total run time was 2 minutes.

[4] = target: T1, CHOK1 cells engineered to overexpress human CCR2 (Homo sapiens, UniProt P41597); assay: Antibody dependent cellular cytotoxicity (ADCC) reporter assay (Example 199); format: cell-based; settings: with anti-cotinine antibody (SEQ ID NO: 11/12), Jurkat FcγRIIIa NFAT-luciferase reporter cells, 12-18 hours, EC50 in molar, average or individual runs; for EC50: read-out: ADCC Reporter Assay pEC50 (converted)
T1 construct: expressed in transfected cells; host or cells: CHOK1
Procedure: An antibody dependent cellular cytoxocity reporter assay was conducted using the following four assay components: (i) ARM compound of Formula (I) targeting CCR2 (concentrations ranging from […] to 10 μM) (ii) anti-cotinine antibody having a heavy chain sequence of SEQ ID NO: 11 and a light chain sequence of SEQ ID NO: 12 (rabbit variable region with human IgG1 Fc domain containing a DE mutation (S239D/1332E)) (concentrations ranging from 0.01 μg/mL to 200 μg/mL); (iii) target cells: CHOK1 cells engineered to overexpress either human CCR2 (typically 1000-20,000 cells per well) and (iv) reporter cells: Jurkat cells engineered to express FcγRIIIa with the reporter gene luciferase under the control of the NFAT promoter (typically 3000-75,000 cells per well). Reagents were combined in a final volume of 20 μL in a 384-well tissue culture treated plate. All four assay components were incubated together for about 12-18 hours. Thereafter, BioGlo Detection reagent (Promega) was added to the wells to lyse the cells and provide a substrate for the luciferase reporter protein. Luminescence signal was measured on a microplate reader and signal: background was calculated by dividing the signal of a test well by the signal obtained when no heterobivalent compound of Formula (I) was added. EC50 calculations were done using Graphpad Prism Software, specifically a nonlinear regression curve fit (Y=Bottom+(Top−Bottom)/(1+10A((LogEC50−X)*HillSlope))).
ARMs compounds of Formula (I) of the invention were tested for ADCC activity in the above assay in or more experimental runs and the results are shown in Table 3 below. Potency of the compounds of Formula (I) of the invention is reported as a pEC50 value. The pEC50 value is the negative log of the EC50 value, wherein the EC50 value is the half maximal effective concentration measured in molar (M). For compounds tested in more than one experimental run, the pEC50 value is reported as an average.

Row | SMILES | % Depletion of CCR2 expressing cells [1] [%] | pKd of Antibody for ARM Compound of Formula (I) [2] | concentration at 48 h [3] [ng/mL] | EC50 [4] [nM] | ADCC Reporter Assay pEC50 [4]
1 | CN1C(=O)C[C@H](C(=O)NCCOCCOCCOCCOCCOCCC(=O)N[C@@H]2C[C@H](NC(C)(C)C)CC[C@@H]2N2CC[C@H](Nc3ncnc4ccc(C(F)(F)F)cc34)C2=O)[C@H]1c1cccnc1 [Example 37, (2S,3S)-N-(18-(((1R,2S,5R)-5-(tert-Butylamino)-2-((S)-2-oxo-3-((6-(trifluoromethyl)quinazolin-4-yl)amino)pyrrolidin-1-yl)cyclohexyl)amino)-18-oxo-3,6,9,12,15-pentaoxaoctadecyl)-1-methyl-5-oxo-2-(pyridin-3-yl)pyrrolidine-3-carboxamide] | 75 | 9.7475 | 48.7 | 12.6 | –
2 | CN1C(=O)C[C@H](C(=O)NCCOCCOCCOCCOCCOCCOCCC(=O)N[C@@H]2C[C@H](NC(C)(C)C)CC[C@@H]2N2CC[C@H](Nc3ncnc4ccc(C(F)(F)F)cc34)C2=O)[C@H]1c1cccnc1 [Example 38, (2S,3S)-N-(21-(((1R,2S,5R)-5-(tert-Butylamino)-2-((S)-2-oxo-3-((6-(trifluoromethyl)quinazolin-4-yl)amino)pyrrolidin-1-yl)cyclohexyl)amino)-21-oxo-3,6,9,12,15,18-hexaoxahenicosyl)-1-methyl-5-oxo-2-(pyridin-3-yl)pyrrolidine-3-carboxamide] | 84.55 | 9.611 | 47.6 | 2.51 | –
3 | CC(C)N(C)[C@@H]1CC[C@H](N2CC[C@H](Nc3ncnc4ccc(C(F)(F)F)cc34)C2=O)[C@H](NC(=O)CCOCCOCCOCCOCCOCCNC(=O)[C@H]2CC(=O)N(C)[C@@H]2c2cccnc2)C1 [Example 40, (2S,3S)-N-(18-(((1R,2S,5R)-5-(Isopropyl(methyl)amino)-2-((S)-2-oxo-3-((6-(trifluoromethyl)quinazolin-4-yl)amino)pyrrolidin-1-yl)cyclohexyl)amino)-18-oxo-3,6,9,12,15-pentaoxaoctadecyl)-1-methyl-5-oxo-2-(pyridin-3-yl)pyrrolidine-3-carboxamide] | – | 9.4525 | – | 6.31 | –
4 | CC(C)N(C)[C@@H]1CC[C@H](N2CC[C@H](Nc3ncnc4ccc(C(F)(F)F)cc34)C2=O)[C@H](NC(=O)CCOCCOCCOCCOCCOCCOCCNC(=O)[C@H]2CC(=O)N(C)[C@@H]2c2cccnc2)C1 [Example 41, (2S,3S)-N-(21-(((1R,2S,5R)-5-(isopropyl(methyl)amino)-2-((S)-2-oxo-3-((6-(trifluoromethyl)quinazolin-4-yl)amino)pyrrolidin-1-yl)cyclohexyl)amino)-21-oxo-3,6,9,12,15,18-hexaoxahenicosyl)-1-methyl-5-oxo-2-(pyridin-3-yl)pyrrolidine-3-carboxamide] | – | 9.3615 | – | 2 | –
5 | CC(C)N(C)[C@@H]1CC[C@H](N2CC[C@H](Nc3ncnc4ccc(C(F)(F)F)cc34)C2=O)[C@H](NC2CCN(C(=O)CCOCCOCCOCCOCCNC(=O)[C@H]3CC(=O)N(C)[C@@H]3c3cccnc3)CC2)C1 [Example 69, (2S,3S)-N-(15-(4-(((1R,2S,5R)-5-(Isopropyl(methyl)amino)-2-((S)-2-oxo-3-((6-(trifluoromethyl)quinazolin-4-yl)amino)pyrrolidin-1-yl)cyclohexyl)amino)piperidin-1-yl)-15-oxo-3,6,9,12-tetraoxapentadecyl)-1-methyl-5-oxo-2-(pyridin-3-yl)pyrrolidine-3-carboxamide] | 98.59 | 9.321 | 39.9 | 0.316 | –
6 | CC(C)N(C)[C@@H]1CC[C@H](N2CC[C@H](Nc3ncnc4ccc(C(F)(F)F)cc34)C2=O)[C@H](NC(=O)[C@H]2CC[C@@H](NC(=O)CCCOCCCCOCCNC(=O)[C@H]3CC(=O)N(C)[C@@H]3c3cccnc3)CC2)C1 [Example 122, (2S,3S)-N-(2-(4-(4-(((1S,4s)-4-(((1R,2S,5R)-5-(Isopropyl(methyl)amino)-2-((S)-2-oxo-3-((6-(trifluoromethyl)quinazolin-4-yl)amino)pyrrolidin-1-yl)cyclohexyl)carbamoyl)cyclohexyl)amino)-4-oxobutoxy)butoxy)ethyl)-1-methyl-5-oxo-2-(pyridin-3-yl)pyrrolidine-3-carboxamide] | 94 | 9.146 | – | – | 9
7 | CN1C(=O)C[C@H](C(=O)NCCOCCNC(=O)[C@H]2C[C@H](NC(=O)CCOCCC(=O)N[C@@H]3C[C@H](NC(C)(C)C)CC[C@@H]3N3CC[C@H](Nc4ncnc5ccc(C(F)(F)F)cc45)C3=O)C2)[C@H]1c1cccnc1 [Example 188, (2S,3S)-N-(2-(2-((1R,3S)-3-(3-(3-(((1R,2S,5R)-5-(tert-butylamino)-2-((S)-2-oxo-3-((6-(trifluoromethyl)quinazolin-4-yl)amino)pyrrolidin-1-yl)cyclohexyl)amino)-3-oxopropoxy)propanamido)cyclobutane-1-carboxamido)ethoxy)ethyl)-1-methyl-5-oxo-2-(pyridin-3-yl)pyrrolidine-3-carboxamide] | 91 | 8.975 | 73 | 0.501 | –
8 | CC(C)N(C)[C@@H]1CC[C@H](N2CC[C@H](Nc3ncnc4ccc(C(F)(F)F)cc34)C2=O)[C@H](NC(=O)CCCN2CCC3(CCN(CCCNC(=O)[C@H]4CC(=O)N(C)[C@@H]4c4cccnc4)CC3)CC2)C1 [Example 191, (2S,3S)-N-(3-(9-(4-(((1R,2S,5R)-5-(Isopropyl(methyl)amino)-2-((S)-2-oxo-3-((6-(trifluoromethyl)quinazolin-4-yl)amino)pyrrolidin-1-yl)cyclohexyl)amino)-4-oxobutyl)-3,9-diazaspiro[5.5]undecan-3-yl)propyl)-1-methyl-5-oxo-2-(pyridin-3-yl)pyrrolidine-3-carboxamide] | 69 | 9.68 | – | – | –
9 | CC(C)N(C)[C@@H]1CC[C@H](N2CC[C@H](Nc3ncnc4ccc(C(F)(F)F)cc34)C2=O)[C@H](NC(=O)[C@H]2CC[C@H](C(=O)NCCCOCCCCOCCCNC(=O)[C@H]3CC(=O)N(C)[C@@H]3c3cccnc3)CC2)C1 [Example 194, (1r,4R)-N^1-((1R,2S,5R)-5-(Isopropyl(methyl)amino)-2-((S)-2-oxo-3-((6-(trifluoromethyl)quinazolin-4-yl)amino)pyrrolidin-1-yl)cyclohexyl)-N^4-(3-(4-(3-((2S,3S)-1-methyl-5-oxo-2-(pyridin-3-yl)pyrrolidine-3-carboxamido)propoxy)butoxy)propyl)cyclohexane-1,4-dicarboxamide] | 96 | 9.5415 | – | – | –

From patent publication US12521393B2, “Cytotoxicity targeting chimeras for CCR2-expressing cells” (GLAXOSMITHKLINE INTELLECTUAL PROPERTY DEVELOPMENT LIMITED, priority 2021, dated 2026)
